One data set addresses D(3) dopamine receptor (Homo sapiens, UniProt P35462). Kind of data set: Displacement of [125I]iodosulpiride from human cloned D3 receptor expressed in CHO cells. The class given is cell-based.
Data set [1] is described as follows: Blood clearance in rat at 3 mg/kg, po. The class given is ADME, organism-based. On the set-up: dose 3 mg/kg, route oral. The conditions noted are these: whole blood.
For data set [2], the target named is T1, 5-hydroxytryptamine receptor 2C (Homo sapiens, UniProt P28335).
T1 sequence (P28335 whole entry): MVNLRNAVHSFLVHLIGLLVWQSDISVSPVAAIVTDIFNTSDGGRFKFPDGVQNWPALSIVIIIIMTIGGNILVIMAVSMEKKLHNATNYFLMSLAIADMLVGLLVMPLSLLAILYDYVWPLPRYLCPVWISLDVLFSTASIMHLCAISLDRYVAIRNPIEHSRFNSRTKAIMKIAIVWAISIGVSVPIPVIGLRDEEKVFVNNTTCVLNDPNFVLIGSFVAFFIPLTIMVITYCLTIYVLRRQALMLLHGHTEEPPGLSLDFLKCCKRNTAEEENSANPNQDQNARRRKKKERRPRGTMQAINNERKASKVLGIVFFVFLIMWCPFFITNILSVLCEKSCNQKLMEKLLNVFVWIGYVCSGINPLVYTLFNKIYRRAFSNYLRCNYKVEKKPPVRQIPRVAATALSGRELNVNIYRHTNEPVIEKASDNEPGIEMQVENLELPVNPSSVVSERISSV
Kind of data set: Displacement of [3H]mesulergine from human cloned 5HT2C receptor expressed in HEK293 cells. It counts as cell-based. (In general: Loss of bound radioactivity is the signal in a displacement assay; it reports binding, not function.)

Data set [3] addresses 5-hydroxytryptamine receptor 1D (Homo sapiens, UniProt P28221). Kind of data set: Displacement of [3H]5-HT from human cloned 5HT1D receptor expressed in CHO cells. The class given is cell-based.
Data set [4] concerns the target 5-hydroxytryptamine receptor 2A (Homo sapiens, UniProt P28223). Kind of data set: Displacement of [3H]ketanserin from human cloned 5HT2A receptor expressed in HEK293 cells. It counts as cell-based.
In data set [5] the target is 5-hydroxytryptamine receptor 6 (Homo sapiens, UniProt P50406). Kind of data set: Displacement of [3H]LSD from human cloned 5HT6 receptor expressed in HeLa cells. The class given is cell-based.
Sequence of 5-hydroxytryptamine receptor 6 (P50406 whole entry): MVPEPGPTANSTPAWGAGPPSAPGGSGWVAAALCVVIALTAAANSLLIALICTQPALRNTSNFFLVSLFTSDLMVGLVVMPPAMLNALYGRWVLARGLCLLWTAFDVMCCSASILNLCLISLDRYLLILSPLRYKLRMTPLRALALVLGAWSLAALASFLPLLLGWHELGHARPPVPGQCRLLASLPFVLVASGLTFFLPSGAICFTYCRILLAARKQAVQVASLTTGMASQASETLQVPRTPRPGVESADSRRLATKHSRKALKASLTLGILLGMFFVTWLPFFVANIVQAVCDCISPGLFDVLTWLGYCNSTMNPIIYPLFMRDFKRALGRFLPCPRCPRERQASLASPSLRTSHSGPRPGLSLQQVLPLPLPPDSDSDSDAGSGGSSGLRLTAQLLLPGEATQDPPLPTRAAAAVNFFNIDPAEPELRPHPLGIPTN
In data set [6] the target is Sodium-dependent serotonin transporter (Rattus norvegicus, UniProt P31652). Kind of data set: Inhibition of [3H]5-HT uptake at SERT in rat cortical synaptosomes. It counts as subcellular, Brain.
Sequence of Sodium-dependent serotonin transporter (P31652 whole entry): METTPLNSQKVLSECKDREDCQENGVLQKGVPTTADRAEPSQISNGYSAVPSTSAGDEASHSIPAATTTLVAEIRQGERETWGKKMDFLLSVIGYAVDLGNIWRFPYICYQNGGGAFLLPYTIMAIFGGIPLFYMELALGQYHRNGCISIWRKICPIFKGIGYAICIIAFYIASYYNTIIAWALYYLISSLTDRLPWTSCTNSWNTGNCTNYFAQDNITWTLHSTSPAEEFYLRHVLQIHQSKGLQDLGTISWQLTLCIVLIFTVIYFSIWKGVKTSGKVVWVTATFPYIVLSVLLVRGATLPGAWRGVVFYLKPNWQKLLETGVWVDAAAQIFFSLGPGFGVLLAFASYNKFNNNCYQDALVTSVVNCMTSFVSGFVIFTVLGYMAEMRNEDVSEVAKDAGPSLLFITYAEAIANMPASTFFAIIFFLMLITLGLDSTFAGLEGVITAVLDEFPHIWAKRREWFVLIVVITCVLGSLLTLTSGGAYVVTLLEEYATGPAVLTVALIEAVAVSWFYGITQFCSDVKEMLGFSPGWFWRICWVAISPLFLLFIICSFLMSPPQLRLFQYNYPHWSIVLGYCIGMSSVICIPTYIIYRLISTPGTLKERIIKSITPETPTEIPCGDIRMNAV
Data set [7] deals with Alpha-1B adrenergic receptor (Homo sapiens) (UniProt P35368). Kind of data set: Binding affinity at adrenergic alpha 1b receptor.
Sequence of Alpha-1B adrenergic receptor (Homo sapiens) (P35368 whole entry, looked up): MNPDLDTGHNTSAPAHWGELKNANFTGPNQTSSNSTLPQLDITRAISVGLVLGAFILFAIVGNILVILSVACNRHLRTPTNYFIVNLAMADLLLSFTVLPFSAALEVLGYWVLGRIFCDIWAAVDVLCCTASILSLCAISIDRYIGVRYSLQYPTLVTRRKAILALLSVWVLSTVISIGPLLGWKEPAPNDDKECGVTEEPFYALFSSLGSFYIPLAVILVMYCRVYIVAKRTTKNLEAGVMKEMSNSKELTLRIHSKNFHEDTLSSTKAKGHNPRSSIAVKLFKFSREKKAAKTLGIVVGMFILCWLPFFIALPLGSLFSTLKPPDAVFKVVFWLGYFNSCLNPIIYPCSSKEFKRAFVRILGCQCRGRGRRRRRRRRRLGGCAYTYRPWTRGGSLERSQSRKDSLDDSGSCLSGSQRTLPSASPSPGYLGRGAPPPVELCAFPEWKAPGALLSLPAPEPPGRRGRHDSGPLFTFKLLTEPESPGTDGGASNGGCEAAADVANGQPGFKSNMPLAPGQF
In data set [8] the target is 5-hydroxytryptamine receptor 1B (Homo sapiens, UniProt P28222). Kind of data set: Displacement of [3H]5-HT from human cloned 5HT1B receptor expressed in CHO cells. The class given is cell-based.
Sequence of 5-hydroxytryptamine receptor 1B (P28222 whole entry): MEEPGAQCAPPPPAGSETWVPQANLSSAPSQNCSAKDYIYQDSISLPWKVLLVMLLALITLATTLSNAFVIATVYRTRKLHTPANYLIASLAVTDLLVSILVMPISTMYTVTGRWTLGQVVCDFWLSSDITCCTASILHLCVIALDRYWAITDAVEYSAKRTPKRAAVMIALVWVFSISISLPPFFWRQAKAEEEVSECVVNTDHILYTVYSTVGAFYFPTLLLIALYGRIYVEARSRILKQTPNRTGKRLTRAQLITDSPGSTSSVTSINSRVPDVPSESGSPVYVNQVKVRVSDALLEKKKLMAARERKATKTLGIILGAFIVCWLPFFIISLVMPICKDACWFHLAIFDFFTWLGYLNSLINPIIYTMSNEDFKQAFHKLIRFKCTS
Data set [9] addresses 5-hydroxytryptamine receptor 7 (Homo sapiens, UniProt P34969). Kind of data set: Displacement of [3H]5CT from human cloned 5HT7a receptor expressed in HEK293 cells. It counts as cell-based.
For the next data set, the target named is D(2) dopamine receptor (Homo sapiens, UniProt P14416). Kind of data set: Displacement of [125I]iodosulpiride from human cloned D2 receptor expressed in CHO cells. It counts as cell-based.
Sequence of D(2) dopamine receptor (P14416 whole entry): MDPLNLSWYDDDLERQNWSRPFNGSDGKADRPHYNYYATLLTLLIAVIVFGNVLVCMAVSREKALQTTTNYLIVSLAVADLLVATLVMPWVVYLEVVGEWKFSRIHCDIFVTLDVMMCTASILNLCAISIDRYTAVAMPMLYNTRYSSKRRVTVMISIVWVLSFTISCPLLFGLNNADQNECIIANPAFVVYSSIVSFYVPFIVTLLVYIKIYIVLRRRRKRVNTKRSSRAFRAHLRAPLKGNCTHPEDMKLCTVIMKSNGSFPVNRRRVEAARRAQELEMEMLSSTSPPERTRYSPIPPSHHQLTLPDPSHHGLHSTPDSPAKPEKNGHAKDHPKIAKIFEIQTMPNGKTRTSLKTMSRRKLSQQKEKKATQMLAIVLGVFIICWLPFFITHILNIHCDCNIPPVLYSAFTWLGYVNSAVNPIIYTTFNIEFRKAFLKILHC
Data set [10] addresses T2, 5-hydroxytryptamine receptor 1A (Homo sapiens, UniProt P08908).
T2 sequence (P08908 whole entry): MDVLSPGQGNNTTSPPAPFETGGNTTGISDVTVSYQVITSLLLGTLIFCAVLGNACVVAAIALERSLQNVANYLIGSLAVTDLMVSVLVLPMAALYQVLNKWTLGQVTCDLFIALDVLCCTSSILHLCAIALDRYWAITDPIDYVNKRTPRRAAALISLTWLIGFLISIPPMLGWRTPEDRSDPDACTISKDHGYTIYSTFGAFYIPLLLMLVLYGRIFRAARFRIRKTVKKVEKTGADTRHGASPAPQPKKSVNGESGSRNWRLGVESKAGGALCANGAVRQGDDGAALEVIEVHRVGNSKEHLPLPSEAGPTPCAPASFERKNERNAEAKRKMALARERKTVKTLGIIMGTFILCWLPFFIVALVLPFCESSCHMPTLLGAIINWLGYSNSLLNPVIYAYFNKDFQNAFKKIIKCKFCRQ
Kind of data set: Displacement of [3H]WAY-100635 from human cloned 5HT1A receptor expressed in CHO cells. The class given is cell-based.

Data set [11] can be described thus: Oral bioavailability in rat at 3 mg/kg, po. The class given is ADME, organism-based. The conditions noted are these: in vivo.
A short description of data set [12]: Ratio of drug level in brain to blood in rat.
The target in data set [13] is 5-hydroxytryptamine receptor 2B (Homo sapiens, UniProt P41595). Kind of data set: Displacement of [3H]5-HT from human cloned 5HT2B receptor expressed in HEK293 cells. The class given is cell-based.
Sequence of 5-hydroxytryptamine receptor 2B (P41595 whole entry): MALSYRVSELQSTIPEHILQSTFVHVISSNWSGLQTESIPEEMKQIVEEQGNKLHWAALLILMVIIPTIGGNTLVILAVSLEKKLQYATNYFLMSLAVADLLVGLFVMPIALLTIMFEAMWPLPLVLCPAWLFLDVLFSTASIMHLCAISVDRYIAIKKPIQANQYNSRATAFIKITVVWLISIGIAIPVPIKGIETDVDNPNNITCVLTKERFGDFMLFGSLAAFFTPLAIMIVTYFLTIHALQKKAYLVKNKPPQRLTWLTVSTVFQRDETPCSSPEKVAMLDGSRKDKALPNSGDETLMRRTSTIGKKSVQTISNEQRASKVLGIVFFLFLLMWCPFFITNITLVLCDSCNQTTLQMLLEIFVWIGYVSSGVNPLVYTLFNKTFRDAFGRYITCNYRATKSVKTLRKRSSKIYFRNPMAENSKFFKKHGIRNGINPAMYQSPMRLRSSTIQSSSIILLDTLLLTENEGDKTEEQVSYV

pKi: −log10 of the molar value.

Sequence of 5-hydroxytryptamine receptor 7 (P34969 whole entry): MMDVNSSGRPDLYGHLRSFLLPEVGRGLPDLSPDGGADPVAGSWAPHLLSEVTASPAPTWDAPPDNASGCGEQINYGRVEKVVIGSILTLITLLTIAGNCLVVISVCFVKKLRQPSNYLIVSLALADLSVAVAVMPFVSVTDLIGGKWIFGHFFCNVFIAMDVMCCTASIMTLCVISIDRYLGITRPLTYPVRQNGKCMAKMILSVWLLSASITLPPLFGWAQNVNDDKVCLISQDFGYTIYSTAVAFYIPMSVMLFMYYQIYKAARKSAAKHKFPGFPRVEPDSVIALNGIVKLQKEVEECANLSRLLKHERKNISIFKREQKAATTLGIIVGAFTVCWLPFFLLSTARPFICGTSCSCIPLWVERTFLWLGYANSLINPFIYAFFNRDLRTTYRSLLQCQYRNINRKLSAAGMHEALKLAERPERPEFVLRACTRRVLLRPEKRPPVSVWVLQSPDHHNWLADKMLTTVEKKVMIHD
Sequence of D(3) dopamine receptor (P35462 whole entry): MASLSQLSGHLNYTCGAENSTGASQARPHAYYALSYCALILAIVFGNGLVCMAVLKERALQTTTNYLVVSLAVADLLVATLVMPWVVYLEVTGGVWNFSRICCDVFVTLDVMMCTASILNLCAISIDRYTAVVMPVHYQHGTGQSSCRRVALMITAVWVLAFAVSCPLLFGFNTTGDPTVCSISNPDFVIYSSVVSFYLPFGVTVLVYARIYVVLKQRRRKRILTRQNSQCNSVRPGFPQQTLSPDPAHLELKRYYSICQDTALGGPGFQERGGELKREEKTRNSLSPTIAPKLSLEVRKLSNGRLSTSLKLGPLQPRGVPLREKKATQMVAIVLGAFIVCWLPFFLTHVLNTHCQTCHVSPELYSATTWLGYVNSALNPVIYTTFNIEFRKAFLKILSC
Sequence of 5-hydroxytryptamine receptor 1D (P28221 whole entry): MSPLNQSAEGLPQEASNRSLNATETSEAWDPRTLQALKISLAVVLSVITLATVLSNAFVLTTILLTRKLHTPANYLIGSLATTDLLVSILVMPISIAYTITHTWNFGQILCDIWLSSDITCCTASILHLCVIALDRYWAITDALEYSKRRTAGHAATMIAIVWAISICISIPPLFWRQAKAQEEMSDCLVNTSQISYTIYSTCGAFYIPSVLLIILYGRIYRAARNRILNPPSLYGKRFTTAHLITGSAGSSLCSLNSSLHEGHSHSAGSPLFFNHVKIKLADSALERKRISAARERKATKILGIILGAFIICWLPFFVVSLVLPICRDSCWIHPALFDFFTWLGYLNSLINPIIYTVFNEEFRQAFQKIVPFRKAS
Sequence of 5-hydroxytryptamine receptor 2A (P28223 whole entry): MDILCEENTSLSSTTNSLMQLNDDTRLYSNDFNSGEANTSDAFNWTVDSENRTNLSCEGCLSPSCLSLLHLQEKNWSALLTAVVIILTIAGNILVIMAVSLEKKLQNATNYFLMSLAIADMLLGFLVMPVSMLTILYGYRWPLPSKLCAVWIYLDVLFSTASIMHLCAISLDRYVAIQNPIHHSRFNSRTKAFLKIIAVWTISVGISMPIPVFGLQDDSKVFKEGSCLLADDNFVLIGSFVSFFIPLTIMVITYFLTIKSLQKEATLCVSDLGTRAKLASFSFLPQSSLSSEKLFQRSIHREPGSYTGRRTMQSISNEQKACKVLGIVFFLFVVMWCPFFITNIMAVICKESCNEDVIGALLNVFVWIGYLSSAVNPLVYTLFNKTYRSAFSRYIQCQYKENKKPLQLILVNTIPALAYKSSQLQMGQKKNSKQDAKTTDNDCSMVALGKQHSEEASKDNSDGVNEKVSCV

As to `Cc1ccc2c(OCCN3CCC(Cc4ccc5c(c4F)NC(=O)CO5)CC3)cc(F)cc2n1`, the pKi is 6.10 on D(3) dopamine receptor; 5.60 in [2]; 7.00 in data set [3]; 5.70 in data set [4]; < 5.00 in data set [5]; 7.60 in data set [6]. For the same molecule, the negative-log Ki (pKi) in data set [7] was 5.90; in [8], 6.40; in [9], 6.90; on D(2) dopamine receptor it was 5.90; in data set [10], 8.80. For the same molecule, the CL/F in data set [1] was 27 mL/min/kg. This molecule also yielded a bioavailability in data set [11] of 39%. For the same molecule, in data set [12], the Kp worked out at 6.4.
Regarding `Cc1ccc2c(OCCN3CCC(Cc4ccc5c(c4)NC(=O)CO5)CC3)ccc(Cl)c2n1`, the pKi in data set [3] was 7.20; in [6], 7.90; in [8] it was 6.80; in data set [10], 7.40.
With `Cc1ccc2c(OCCN3CCC(Cc4ccc5c(c4F)NC(=O)CO5)CC3)cc(Cl)cc2n1`, the negative-log Ki (pKi) in [13] is 5.80; at D(3) dopamine receptor, 6.00; in [2], 5.40; in [3], 6.20; in data set [4], 5.40; in data set [5], < 5.00. Further, the negative-log Ki (pKi) in data set [6] was 7.20; in [7], 6.40; in [8] it was 5.80; in data set [9] it was 6.90; at D(2) dopamine receptor, 5.90; in data set [10] it was 8.60. The CL/F in data set [1] came to 28 mL/min/kg. This molecule also showed a bioavailability in data set [11] of 43%.
On to `Cc1ccc2c(OCCN3CCC(Cc4ccc5c(c4)NC(=O)CO5)CC3)cc(C#N)cc2n1`, for which the pKi in [3] was 6.60; in data set [6] it was 7.00; in data set [8], 6.00; in [10] it was 7.70.
As to `Cc1ccc2c(OCCN3CCC(Cc4ccc5c(c4)NC(=O)CO5)CC3)cccc2n1`, the pKi in data set [13] was 5.80; at D(3) dopamine receptor, 6.20; in data set [2] it was < 5.10; in data set [4], 5.50; in [5], < 5.00; in data set [7] it was 5.60. Further, the pKi in data set [9] is 6.70; at D(2) dopamine receptor, 5.90. The molecule also gave an apparent clearance (CL/F) in data set [1] of 50 mL/min/kg. The molecule also returned a bioavailability in data set [11] of 45%.
In data set [1], `Cc1ccc2c(OCCN3CCC(Cc4ccc5c(c4)NC(=O)CO5)CC3)cc(F)cc2n1` registered an apparent clearance (CL/F) of 25 mL/min/kg. For the same molecule, the negative logarithm of the Ki (pKi) in [3] was 6.40; in data set [6], 7.80; in data set [8], < 6.00; in data set [10], 9.10. In addition, the bioavailability in data set [11] stood at 41%.
For `Cc1ccc2c(OCCN3CCC(Cc4cc(F)c5c(c4)NC(=O)CO5)CC3)cc(F)cc2n1`, the negative logarithm of the Ki (pKi) in [13] was < 5.10; on D(3) dopamine receptor it was 5.40; in [2], < 5.00; in data set [3], 7.10; in data set [4], < 5.00; in data set [5], < 5.20. Besides, the negative logarithm of the Ki (pKi) in data set [6] is 7.20; in data set [8], 6.50; in data set [9] it was 7.10; at D(2) dopamine receptor, < 5.00; in [10] it was 8.40. This molecule displayed an apparent clearance CL/F in data set [1] of 25 mL/min/kg. Further, the Log Ki in data set [7] is > -6. Moreover, in data set [11], the bioavailability amounted to 88%. Also, the concentration ratio (Kp) in data set [12] worked out at 0.4.
Consider `Cc1ccc2c(OCCN3CCC(Cc4ccc5c(c4)NC(=O)CO5)CC3)cc(Cl)cc2n1`, for which the CL/F in [1] stood at 25 mL/min/kg. Moreover, the negative-log Ki (pKi) is 6.10 in [3], 8.00 in data set [6], 5.90 in data set [8] and 8.80 in [10]. In [11], this molecule displayed a bioavailability of 56%. Besides, in data set [12], the partition ratio (Kp) was 0.2.
Molecule `Cc1ccc2c(OCCN3CCC(Cc4ccc5c(c4F)NC(=O)CO5)CC3)cccc2n1` showed a CL/F in [1] of 41 mL/min/kg. Also, the negative logarithm of the Ki (pKi) is 9.10 in [3], 7.80 in [6], 8.60 in data set [8] and 8.60 in data set [10]. The concentration ratio (Kp) in data set [12] worked out at 4.
For the molecule `Cc1ccc2c(OCCN3CCC(Cc4ccc5c(c4)NC(=O)CO5)CC3)ccc(F)c2n1`, the negative logarithm of the Ki (pKi) in data set [3] is 7.10; in data set [6] it was 8.10; in [8], 6.10; in data set [10], 7.70.
`Cc1ccc2c(OCCN3CCC(Cc4cc(F)c5c(c4)NC(=O)CO5)CC3)cccc2n1` had a CL/F in data set [1] of 22 mL/min/kg. Also, the negative-log Ki (pKi) was 9.40 in data set [3], 8.20 in [6], 9.10 in data set [8] and 8.30 in [10].
In the case of `Cc1ccc2c(OCCN3CCC(Cc4cc5c(cc4F)OCC(=O)N5)CC3)cccc2n1`, in [1], the apparent clearance (CL/F) was determined as 36 mL/min/kg. Besides, the negative logarithm of the Ki (pKi) is 8.50 in data set [3], 8.10 in data set [6], 7.70 in [8] and 9.30 in data set [10]. Moreover, in data set [11], the bioavailability came to 33%.
Turning to `Cc1ccc2c(OCCN3CCC(Cc4ccc5c(c4)NC(=O)CO5)CC3)c(F)ccc2n1`, the pKi in data set [3] was 8.60; in data set [6], 8.00; in data set [8], 7.50; in data set [10] it was 7.30.
Regarding `Cc1ccc2c(OCCN3CCC(Cc4cc(F)c5c(c4)NC(=O)CO5)CC3)cc(Cl)cc2n1`, the pKi in [13] was 5.50; on D(3) dopamine receptor, 5.90; in data set [2] it was 5.60; in data set [3], 6.20; in [4], 5.50; in data set [5], < 5.00. Moreover, the negative-log Ki (pKi) in data set [6] was 7.20; in data set [7], 5.80; in [8], 6.20; in [9] it was 7.10; at D(2) dopamine receptor, 5.60; in data set [10], 8.00. Further, the apparent clearance CL/F in data set [1] was 16 mL/min/kg. The bioavailability in [11] is 51%.

The pKi is the negative decadic logarithm of the Ki, by convention in mol/L. Low readings indicate a large Ki, high ones a small Ki. By CL/F is commonly meant the apparent clearance, not corrected for the fraction that reaches the circulation. The bioavailability is dose-corrected exposure relative to a reference, in per cent. The low end stands for little systemic uptake, the high end for much systemic uptake. As usually defined, the Kp is tissue or fluid exposure divided by exposure in the circulation.

The values above are taken from ChEMBL document CHEMBL1139046, “3,4-Dihydro-2H-benzoxazinones as dual-acting 5-HT1A receptor antagonists and serotonin reuptake inhibitors” (Bioorg Med Chem Lett, 2007).
